# Reference: patent publication US8093231B2, “Sulfonylethyl phosphorodiamidates” (Telik, Inc., priority 2004, dated 2012)
# Structures can show the parent of a compound that is named as a salt. Where two headings read alike, the source gives them in different places.
# How the values were obtained:
# [1] = system: MX-1, DLD-1 and LNCap cells; assay: Cytotoxicity/growth inhibition assay, cell line not specified for the statement
# Text: The human cancer cell lines DLD-1 (colorectal adenocarcinoma), LNCap (prostate carcinoma), and OVCAR-3 (ovarian carcinoma) were obtained from the American Type Culture Collection, Manassas, Va., U.S.A., and HL-60 (promyeloid myelocytic leukemia), MX-1 (breast carcinoma), P388, and P388ADR from the National Cancer Institute, Bethesda, Md., U.S.A. Carboplatin, doxorubicin, and melphalan were obtained from Sigma-Aldrich Chemical Company, St. Louis, Mo., U.S.A. The CellTiter-Glo assay kit was obtained from Promega Corporation, Madison, Wis., U.S.A., and the Cellular DNA Cytometric Analysis Reagent Kit from Roche Diagnostics Corporation, Indianapolis, Ind., U.S.A. Lambda DNA was obtained from New England Biolabs, Beverly, Mass., U.S.A., and SYBR-Gold from Molecular Probes, Inc., Eugene, Oreg., U.S.A. The DNeasy Tissue Kit was obtained from Qiagen Inc., Valencia, Calif., U.S.A., and AmpliTaq Gold DNA polymerase and PCR reagents from Applied Biosystems, Foster City, Calif., U.S.A. All products were used in accordance with manufacturer's directions. […] The extent of cell growth was expressed as a percentage of the signal from the solvent control wells.
# Log-phase cells were trypsinized, collected by centrifugation, and resuspended in a small volume of fresh medium, and the density of viable cells was determined following Trypan Blue staining. […]
# [2] = system: M7609 engineered to have high, medium, and low levels of GST P1-1; details: murine xenografts; cited from earlier work
# [3] = system: ovarian, breast, non-small cell lung, and colorectal cancers; details: cited from earlier work
# DLD-1 cells = assay: Cell cycle analysis; format: cell-based, human; details: approximately IC75-85, one and two days, propidium iodide FACS
# Lambda DNA = assay: DNA damage assay; format: biochemical; details: 100 μM and 300 μM, room temperature, one day, PCR amplification
# [4] = system: in vitro cell culture and tumor biopsies; details: cited from earlier work
# [5] = system: M6709 human colon carcinoma cell line selected for resistance to doxorubicin; details: overexpresses GST P1-1; cited from earlier work
# OVCAR-3 cell line = assay: Synergism assay; format: cell-based, human
# Text: The human cancer cell lines DLD-1 (colorectal adenocarcinoma), LNCap (prostate carcinoma), and OVCAR-3 (ovarian carcinoma) were obtained from the American Type Culture Collection, Manassas, Va., U.S.A., and HL-60 (promyeloid myelocytic leukemia), MX-1 (breast carcinoma), P388, and P388ADR from the National Cancer Institute, Bethesda, Md., U.S.A. Carboplatin, doxorubicin, and melphalan were obtained from Sigma-Aldrich Chemical Company, St. Louis, Mo., U.S.A. The CellTiter-Glo assay kit was obtained from Promega Corporation, Madison, Wis., U.S.A., and the Cellular DNA Cytometric Analysis Reagent Kit from Roche Diagnostics Corporation, Indianapolis, Ind., U.S.A. Lambda DNA was obtained from New England Biolabs, Beverly, Mass., U.S.A., and SYBR-Gold from Molecular Probes, Inc., Eugene, Oreg., U.S.A. The DNeasy Tissue Kit was obtained from Qiagen Inc., Valencia, Calif., U.S.A., and AmpliTaq Gold DNA polymerase and PCR reagents from Applied Biosystems, Foster City, Calif., U.S.A. All products were used in accordance with manufacturer's directions. All assays were conducted in triplicate wells, with dimethyl sulfoxide (DMSO) solvent control. The extent of cell growth was expressed as a percentage of the signal from the solvent control wells.
# [6] = system: MCF-7 human breast carcinoma cell line selected for resistance to cyclophosphamide; details: overexpresses GST P1-1; cited from earlier work
smiles,measurement,setting,value
"O=P(OCCSCCOP(=O)(N(CCCl)CCCl)N(CCCl)CCCl)(N(CCCl)CCCl)N(CCCl)CCCl [Compound 1CC, di[2-[[bis[bis(2-chloroethyl)amino]phosphinyl]oxy]ethyl]sulfide]",activity in cytotoxicity/growth inhibition assay,[1],active
N[C@@H](CCC(=O)N[C@@H](CS(=O)(=O)CCOP(=O)(N(CCCl)CCCl)N(CCCl)CCCl)C(=O)N[C@@H](C(=O)O)c1ccccc1)C(=O)O [canfosfamide hydrochloride],potency versus level of GST P1-1,[2],positively correlated with the level of GST P1-1
same,clinical activity,[3]; colorectal and breast cancer,single agent antitumor activity
same,incidence of clinically significant hematological toxicity,[3]; patients treated,very low incidence
same,clinical activity,[3]; patients with non-small cell lung cancer and ovarian cancer,significant single agent antitumor activity and improvement in survival
"N[C@@H](CCC(=O)N[C@@H](CS(=O)(=O)CCOP(=O)(N(CCCl)CCCl)N(CCCl)CCCl)C(=O)N[C@@H](C(=O)O)c1ccccc1)C(=O)O [canfosfamide, L-γ-glutamyl-3-[[2-[[bis[bis(2-chloroethyl)amino]phosphinyl]oxy]ethyl]sulfonyl]-L-alanyl-2phenyl-(2R)-glycine]",cell cycle effect (G2/M cycle block),DLD-1 cells,induced a G2/M cycle block
same,DNA damage activity,Lambda DNA,only marginal DNA damage activity
same,"cross-resistance to platinum, paclitaxel, doxorubicin and gemcitabine",[4],non-cross-resistant
same,potency in resistant line over parental cell line,[5],more potent
same,synergism with carboplatin,OVCAR-3 cell line,synergistic
same,potency in resistant line over parental cell line,[6],more potent
